Values of other authors, collected in patent US8664392B2, “Pyrazine derivatives for bioconjugation” (MediBeacon, LLC, priority 2004, dated 2014).

Conditions: absorb and emit in the blue to orange regions

Stokes shift: ~100 nm
SMILES: Nc1nc(C(=O)O)c(N)nc1C(=O)O [3,6-diamino-2,5-pyrazine-dicarboxylic acid]
